*1 amine or outer side, *2 acyl side, *3 side chain or, on linkers, in order; H or OH if unused. Where a SMILES comes first, the peptide text is derived from it. Bridges are numbered along the chain shown (N, C = ends). C6F4(1,4-diyl) = Fc1c(F)c([*:2])c(F)c(F)c1[*:1]

In ChEMBL document CHEMBL4229343, “Perfluoroarene-based peptide macrocycles that inhibit the Nrf2/Keap1 interaction” (Bioorg Med Chem Lett, 2018) one finds Activity and Ki data, which are given here for seven compounds.

One series concerns THP-1. Briefly: Antiproliferative activity against human THP1 cells. It counts as cell-based.
For `CC(=O)N[C@H]1CSc2c(F)c(F)c(c(F)c2F)SC[C@@H](C(N)=O)NC(=O)[C@H](CCC(=O)O)NC(=O)CNC(=O)[C@H]([C@@H](C)O)NC(=O)[C@H](CCC(=O)O)NC(=O)[C@@H]2CCCN2C(=O)[C@H](CC(=O)O)NC1=O`, the Activity result is “Non-Toxic”.

Consider `CC(=O)N[C@H]1CSSC[C@@H](C(N)=O)NC(=O)[C@H](CCC(=O)O)NC(=O)CNC(=O)[C@H]([C@@H](C)O)NC(=O)[C@H](CCC(=O)O)NC(=O)[C@H](CCC(=O)O)NC(=O)[C@H](CC(=O)O)NC1=O` (Ac-CDEETGEC-NH2; disulfide 1-8), for which the Activity entry is on record as “Non-Toxic”.

With `CC(=O)N[C@H]1CSSC[C@@H](C(=O)O)NC(=O)[C@H](CCC(=O)O)NC(=O)CNC(=O)[C@H]([C@@H](C)O)NC(=O)[C@H](CCC(=O)O)NC(=O)[C@H](CCC(=O)O)NC(=O)[C@H](CC(=O)O)NC1=O` (Ac-CDEETGEC-OH; disulfide 1-8), the Activity entry is on record as “Non-Toxic”.

`CC(=O)N[C@H]1CSSC[C@@H](C(N)=O)NC(=O)CNC(=O)[C@H]([C@@H](C)O)NC(=O)[C@H](CCC(=O)O)NC(=O)[C@H](CCC(=O)O)NC1=O` (Ac-CEETGC-NH2; disulfide 1-6): the Activity entry is listed as “Non-Toxic”.

Consider `CC(=O)N[C@H]1CSSC[C@@H](C(N)=O)NC(=O)[C@H](Cc2ccccc2)NC(=O)[C@H](CCC(=O)O)NC(=O)CNC(=O)[C@H]([C@@H](C)O)NC(=O)[C@H](CCC(=O)O)NC(=O)[C@H](CCC(=O)O)NC(=O)[C@H](CC(=O)O)NC(=O)[C@H](CC(C)C)NC1=O` (Ac-CLDEETGEFC-NH2; disulfide 1-10), for which the Activity entry is on record as “Non-Toxic”.

Take `CC(=O)N[C@H]1CSc2c(F)c(F)c(c(F)c2F)SC[C@@H](C(N)=O)NC(=O)[C@H](Cc2ccccc2)NC(=O)[C@H](CCC(=O)O)NC(=O)CNC(=O)[C@H]([C@@H](C)O)NC(=O)[C@H](CCC(=O)O)NC(=O)[C@@H]2CCCN2C(=O)[C@H](CC(=O)O)NC(=O)[C@H](CC(C)C)NC1=O` (Ac-CLDPETGEFC-NH2; linker 1-10 via C6F4(1,4-diyl)): the Activity entry is “Non-Toxic”.

For `C[C@@H](O)[C@@H]1NC(=O)[C@H](CCC(=O)O)NC(=O)[C@H](CCC(=O)O)NC(=O)[C@H](CC(=O)O)NC(=O)[C@@H](N)CSSC[C@@H](C(N)=O)NC(=O)[C@H](CCC(=O)O)NC(=O)CNC1=O` (H-CDEETGEC-NH2; disulfide 1-8), the Activity entry is given as “Non-Toxic”.

In another series the target is Kelch-like ECH-associated protein 1 (Homo sapiens, UniProt Q14145). The series is described as follows: Displacement of F-14 from Keap1 Kelch domain (unknown origin) expressed in Escherichia coli BL21 (DE3) after 15 mins by fluorescence polarization assay. (Fluorescence polarisation rises when a labelled molecule tumbles more slowly, as on binding a larger partner.)
Chain of Kelch-like ECH-associated protein 1 (Q14145 whole entry, the tested form may be a part): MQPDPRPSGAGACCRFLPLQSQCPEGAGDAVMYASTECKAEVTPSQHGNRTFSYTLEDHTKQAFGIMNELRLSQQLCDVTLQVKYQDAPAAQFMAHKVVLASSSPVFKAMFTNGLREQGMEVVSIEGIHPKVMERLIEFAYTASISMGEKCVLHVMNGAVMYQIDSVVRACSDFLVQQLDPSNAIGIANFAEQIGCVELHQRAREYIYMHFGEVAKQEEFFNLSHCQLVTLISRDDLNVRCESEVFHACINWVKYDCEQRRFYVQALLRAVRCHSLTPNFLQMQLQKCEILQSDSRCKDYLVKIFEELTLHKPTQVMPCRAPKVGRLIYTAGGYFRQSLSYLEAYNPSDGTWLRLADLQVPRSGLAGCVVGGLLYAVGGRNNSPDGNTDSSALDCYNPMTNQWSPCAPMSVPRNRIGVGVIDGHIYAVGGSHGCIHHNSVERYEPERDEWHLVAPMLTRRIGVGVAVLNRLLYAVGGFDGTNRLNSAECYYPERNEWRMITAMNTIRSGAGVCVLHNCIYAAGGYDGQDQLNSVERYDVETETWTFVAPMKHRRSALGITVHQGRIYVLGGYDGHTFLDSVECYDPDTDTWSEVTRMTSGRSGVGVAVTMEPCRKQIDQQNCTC
As a reminder, the Ki is a measure of affinity in units of concentration, obtained from inhibition or displacement. Low readings indicate tighter binding, high ones weaker binding. For the compound `CC(=O)N[C@H]1CSSC[C@@H](C(N)=O)NC(=O)CNC(=O)[C@H]([C@@H](C)O)NC(=O)[C@H](CCC(=O)O)NC(=O)[C@H](CCC(=O)O)NC1=O` (Ac-CEETGC-NH2; disulfide 1-6), the affinity corresponds to a Ki of 151 µM.
